# Key:
# LOLRI = assay: Post-emergence herbicidal action against LOLRI; type: in vivo, Lolium rigidum; conditions: application rate 80 g/ha, rated visually after about 3 weeks
# Summary of the method: (§1)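 Foliar application at 600 l/ha water, 0.5% additive, WP or EC formulation; plants at one-leaf stage in greenhouse sandy loam pots. Scored visually ~3 weeks post-treatment, 0–100% relative to untreated plants.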
# AMARE = assay: Post-emergence herbicidal action against AMARE; type: in vivo, Amaranthus retroflexus; conditions: application rate 80 g/ha, rated visually about 3 weeks after treatment
# Summary of the method: as §1
# ALOMY = assay: Post-emergence herbicidal action against ALOMY; type: in vivo, Alopecurus myosuroides; conditions: application rate 80 g/ha, rated visually after about 3 weeks
# Summary of the method: as §1
# AVEFA = assay: Post-emergence herbicidal action against AVEFA; type: in vivo, Avena fatua; conditions: application rate 80 g/ha, rated visually after about 3 weeks
# Summary of the method: as §1
# HORMU = assay: Post-emergence herbicidal action against HORMU; type: in vivo, Hordeum murinum; conditions: application rate 80 g/ha
# Summary of the method: as §1
# VERPE = assay: Post-emergence herbicidal action against VERPE; type: in vivo, Veronica persica; conditions: application rate 80 g/ha
# Summary of the method: as §1
# POLCO = assay: Post-emergence herbicidal action against POLCO; type: in vivo, Polygonum convolvulus; conditions: application rate 80 g/ha, rated visually about 3 weeks after treatment
# Summary of the method: as §1
# MATIN = assay: Post-emergence herbicidal action against MATIN; type: in vivo, Matricaria inodora; conditions: application rate 80 g/ha, rated visually about 3 weeks after treatment
# Description: [table] 2. Post-emergence herbicidal action against harmful plants and crop plant compatibility Seeds of monocotyledonous and dicotyledonous weeds and crop plants are placed in sandy loam in plastic or wood-fibre pots, covered with soil and cultivated in a greenhouse under controlled growth conditions. 2 to 3 weeks after sowing, the test plants are treated at the one-leaf stage. The compounds of the invention, formulated in the form of wettable powders (WP) or as emulsion concentrates (EC), are then sprayed onto the green parts of the plants as aqueous suspension or emulsion with addition of 0.5% additive at a water application rate of 600 l/ha (converted). After the test plants have been kept in the greenhouse under optimum growth conditions for about 3 weeks, the activity of the preparations is rated visually in comparison to untreated controls. For example, 100% activity=the plants have died, 0% activity=like control plants.
# SETVI = assay: Post-emergence herbicidal action against SETVI; type: in vivo, Setaria viridis; conditions: application rate 80 g/ha, rated visually after about 3 weeks
# Summary of the method: as §1
# VIOTR = assay: Post-emergence herbicidal action against VIOTR; type: in vivo, Viola tricolor; conditions: application rate 80 g/ha, rated visually about 3 weeks after treatment
# Summary of the method: as §1
# ECHCG = assay: Post-emergence herbicidal action against ECHCG; type: in vivo, Echinochloa crus-galli; conditions: application rate 80 g/ha, rated visually after about 3 weeks
# Summary of the method: as §1
# ABUTH = assay: Post-emergence herbicidal action against ABUTH; type: in vivo, Abutilon theophrasti; conditions: application rate 80 g/ha, rated visually about 3 weeks after treatment
# Summary of the method: as §1
# PHBPU = assay: Post-emergence herbicidal action against PHBPU; type: in vivo, Pharbitis purpurea; conditions: application rate 80 g/ha, rated visually about 3 weeks after treatment
# Summary of the method: as §1
# STEME = assay: Post-emergence herbicidal action against STEME; type: in vivo, Stellaria media; conditions: application rate 80 g/ha, rated visually about 3 weeks after treatment
# Summary of the method: as §1
SMILES,Herbicidal action against [%] LOLRI (LOLRI),Herbicidal action against [%] AMARE (AMARE),Herbicidal action against [%] ALOMY (ALOMY),Herbicidal action against [%] AVEFA (AVEFA),Herbicidal action against [%] HORMU (HORMU),Herbicidal action against [%] VERPE (VERPE),Herbicidal action against [%] POLCO (POLCO),Herbicidal action against [%] MATIN (MATIN),Herbicidal action against [%] SETVI (SETVI),Herbicidal action against [%] VIOTR (VIOTR),Herbicidal action against [%] ECHCG (ECHCG),Herbicidal action against [%] ABUTH (ABUTH),Herbicidal action against [%] PHBPU (PHBPU),Herbicidal action against [%] STEME (STEME)
Cc1cc(F)cc(C2=NOC(C(=O)NC3C=CC(C(=O)OCC(F)(F)F)C3)(C(F)(F)F)C2)c1 (mixture of isomers) [Example I-032],90%,90%,90%,100%,80%,80%,100%,80%,90%,80%,–,–,–,–
C=CC1(C(=O)NC2C=CC(C(=O)OCc3ccccc3)C2)CC(c2cc(F)cc(F)c2)=NO1 (mixture of isomers) [Example I-033],90%,90%,90%,90%,80%,80%,100%,90%,90%,–,90%,80%,80%,80%
CCOC(=O)C1C=CC(NC(=O)C2(C(F)(F)F)CC(c3cc(C)cc(C(F)(F)F)c3)=NO2)C1 (mixture of isomers) [Example I-036],90%,80%,90%,80%,80%,80%,90%,80%,–,90%,–,80%,–,–
COC(=O)C1C=CC(NC(=O)C2(C(F)(F)F)CC(c3cc(Cl)cc(Cl)c3)=NO2)C1 (mixture of isomers) [Example I-039],100%,80%,100%,90%,80%,80%,–,80%,80%,–,90%,80%,80%,90%
COC(=O)C1C=CC(NC(=O)C2(C(F)(F)F)CC(c3cc(C)cc(C(F)(F)F)c3)=NO2)C1 (mixture of isomers) [Example I-048],80%,–,100%,90%,90%,80%,–,80%,–,–,80%,80%,80%,90%
COC(=O)C1C=CC(NC(=O)C2(C(F)(F)F)CC(c3cc(C)cc(C)c3)=NO2)C1 (mixture of isomers) [Example I-055],90%,80%,90%,80%,90%,80%,90%,80%,90%,90%,90%,80%,–,90%
CCOC(=O)C1C=CC(NC(=O)C2(C(F)(F)F)CC(c3cc(F)cc(C#N)c3)=NO2)C1 (mixture of isomers) [Example I-071],90%,80%,90%,100%,90%,80%,90%,80%,90%,80%,90%,80%,–,90%
C=CC1(C(=O)NC2C=CC(C(=O)NS(=O)(=O)CCC)C2)CC(c2cc(F)cc(F)c2)=NO1 (mixture of isomers) [II-14],100%,90%,100%,100%,90%,90%,90%,90%,90%,90%,100%,–,–,–
CC1(C(=O)N[C@H]2C=C[C@@H](C(=O)OCc3ccccc3)C2)CC(c2cc(F)cc(F)c2)=NO1 (stereo partly drawn) [Example I-008],90%,90%,100%,90%,90%,90%,90%,90%,90%,–,90%,90%,90%,90%
CC1(C(=O)N[C@H]2C=C[C@@H](C(=O)OCCCl)C2)CC(c2cc(F)cc(F)c2)=NO1 (stereo partly drawn) [Example I-009],90%,–,90%,90%,90%,90%,90%,90%,90%,–,90%,90%,90%,90%
CCOC(=O)[C@@H]1C=C[C@H](NC(=O)C2(C(F)(F)F)CC(c3cc(C)cc(F)c3)=NO2)C1 (stereo partly drawn) [Example I-022],100%,100%,100%,100%,80%,80%,100%,80%,100%,80%,80%,90%,–,–
COC(=O)[C@@H]1C=C[C@H](NC(=O)C2(C(F)(F)F)CC(c3cc(C)cc(F)c3)=NO2)C1 (stereo partly drawn) [Example I-024],90%,90%,90%,100%,80%,80%,90%,80%,80%,80%,90%,80%,–,–
COC(=O)[C@@H]1C=C[C@H](NC(=O)C2(C(F)(F)F)CC(c3cc(C)cc(Cl)c3)=NO2)C1 (stereo partly drawn) [Example I-027],90%,80%,90%,90%,80%,80%,–,90%,90%,80%,80%,80%,–,80%

# Reference: patent publication US12319664B2, “Herbicidally active 3-phenylisoxazoline-5-carboxamides of cyclopentenylcarboxylic acid derivatives” (Bayer Aktiengesellschaft, priority 2018, dated 2025)
